Experiments:
Assay in all cases: Bliss excess, mean over the matrix (fraction); higher = more synergy
[1] = tested on: JHH-2 (Hepatocellular Carcinoma)
Outline: (§1)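 Cell lines in DMEM/F12 or RPMI with 10% FBS were plated in 1536-well plates, held 24 hours at 37°C, 5% CO2, then given two-drug dose matrices for 72 hours (DMSO typically 0.2%). Viability was read by CellTiter-Glo 2.0 luminescence and scaled as inhibition from 0 (vehicle wells) to 1 (blank wells). Combination Emax is the second-highest inhibition in the matrix; Bliss excess is observed combination effect minus expected EA + EB − EA·EB, EA and EB being single-agent effects.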

[2] = tested on: OACp4C (Esophageal Adenocarcinoma)
Outline: as §1

[3] = tested on: EPLC-272H (Other Solid Carcinomas)
Outline: as §1

[4] = tested on: KP-N-YN (Neuroblastoma)
Outline: as §1

[5] = tested on: NB13 (Neuroblastoma)
Outline: as §1

[6] = tested on: DMS-53 (Small Cell Lung Carcinoma)
Outline: as §1

[7] = tested on: ESO26 (Esophageal Adenocarcinoma)
Outline: as §1

[8] = tested on: JHU-022 (Oral Cavity Carcinoma)
Outline: as §1

[9] = tested on: LS-411N (Colorectal Carcinoma)
Outline: as §1

[10] = tested on: HCC70 (Breast Carcinoma)
Outline: as §1

[11] = tested on: NCI-H1651 (Lung Adenocarcinoma)
Outline: as §1

[12] = tested on: Jurkat (T-Lymphoblastic Leukemia)
Outline: as §1

[13] = tested on: IM-9 (Non-Cancerous)
Outline: as §1

[14] = tested on: EW-7 (Ewing's Sarcoma)
Outline: as §1

[15] = tested on: COLO-792 (Melanoma)
Outline: as §1

[16] = tested on: NCI-H441 (Lung Adenocarcinoma)
Outline: as §1

[17] = tested on: PEO1 (Ovarian Carcinoma)
Outline: as §1

[18] = tested on: NCI-H1703 (Squamous Cell Lung Carcinoma)
Outline: as §1

[19] = tested on: SK-HEP-1 (Hepatocellular Carcinoma)
Outline: as §1

[20] = tested on: RH-41 (Rhabdomyosarcoma)
Outline: as §1

Compound	Bliss excess [1]	Bliss excess [2]	Bliss excess [3]	Bliss excess [4]	Bliss excess [5]	Bliss excess [6]	Bliss excess [7]	Bliss excess [8]	Bliss excess [9]	Bliss excess [10]	Bliss excess [11]	Bliss excess [12]	Bliss excess [13]	Bliss excess [14]	Bliss excess [15]	Bliss excess [16]	Bliss excess [17]	Bliss excess [18]	Bliss excess [19]	Bliss excess [20]
Cn1cnc2c(F)c(Nc3ccc(Br)cc3Cl)c(C(=O)NOCCO)cc21 [Selumetinib] + C=CCn1c(=O)c2cnc(Nc3ccc(N4CCN(C)CC4)cc3)nc2n1-c1cccc(C(C)(C)O)n1 [AZD1775] (first compound max 10 µM, partner max 1 µM)	-0.0571	-0.0357	-0.0607	-0.0751	-0.0591	-0.0174	-0.0853	0.0283	-0.0554	0.0361	-0.0692	-0.0309	-0.045	-0.0115	0.0092	0.0069	-0.0059	-0.0612	0.0127	-0.0189
Cc1c2c(nn1C)CSCc1cc(n(C)n1)CSc1cc(c3ccccc3c1)OCCCc1c(C(=O)O)n(C)c3c-2c(Cl)ccc13 [AZD5991] + C[C@@H]1COCCN1C2=NC(=NC(=C2)C3(CC3)[S@](=N)(=O)C)C4=C5C=CNC5=NC=C4 [AZD6738] (first compound max 1 µM, 7x7, partner max 10 µM)	0.0115	0.0108	0.0151	-0.0067	0.012	0.0165	0.0276	-0.0118	0.0069	-0.0069	0.0192	-0.0178	-0.0532	0.0266	0.0026	0.0073	0.0062	-0.0108	0.0225	0.014
C=CCn1c(=O)c2cnc(Nc3ccc(N4CCN(C)CC4)cc3)nc2n1-c1cccc(C(C)(C)O)n1 [AZD1775] + C1CN(CCC1(C(=O)N[C@@H](CCO)C2=CC=C(C=C2)Cl)N)C3=NC=NC4=C3C=CN4 [Capivasertib] (first compound max 3 µM, partner max 3 µM)	-0.122	0.0005	-0.0011	–	–	-0.007	-0.0424	-0.022	-0.0551	-0.0235	-0.0367	0.185	-0.0157	0.0149	0.0596	-0.0427	-0.0697	0.0131	0.0958	-0.0387
CN(CCO)CC[C@H](CSc1ccccc1)Nc1ccc(S(=O)(=O)NC(=O)c2ccc(N3CCC([C@@H](O)c4ccccc4-c4ccc(Cl)cc4)CC3)cc2)cc1S(=O)(=O)C(F)(F)F [AZD4320] + CN(C)CCCOc1ccc(-c2ccc3ncc4c(c3c2)n(C2CCOCC2)c(=O)n4C)cn1 [AZD0156] (first compound max 1 µM, 7x7, partner max 1 µM)	-0.0486	-0.0257	0.0102	-0.0064	-0.0371	0.0316	-0.025	-0.0584	-0.0009	-0.0321	-0.026	-0.0012	-0.0621	0.0524	–	-0.022	-0.0753	-0.0127	0.0146	-0.0265
C=CCn1c(=O)c2cnc(Nc3ccc(N4CCN(C)CC4)cc3)nc2n1-c1cccc(C(C)(C)O)n1 [AZD1775] + O=C(c1cc(Cc2n[nH]c(=O)c3ccccc23)ccc1F)N1CCN(C(=O)C2CC2)CC1 [Olaparib] (first compound max 1 µM, partner max 10 µM)	-0.0609	-0.055	0.0169	-0.144	0.0008	-0.0715	-0.0518	-0.0257	-0.0608	-0.0479	-0.0869	-0.0088	-0.0305	-0.0704	-0.0241	-0.0662	-0.013	-0.0267	–	-0.0484
Cc1c2c(nn1C)CSCc1cc(n(C)n1)CSc1cc(c3ccccc3c1)OCCCc1c(C(=O)O)n(C)c3c-2c(Cl)ccc13 [AZD5991] + CCN(CCO)CCCOc1ccc2c(Nc3cc(CC(=O)Nc4cccc(F)c4)[nH]n3)ncnc2c1 [AZD2811] (first compound max 1 µM, 7x7, partner max 1 µM)	-0.0213	0.0088	0.0705	0.0556	0.131	0.0525	–	0.0039	0.0206	-0.0219	-0.0386	0.0119	-0.0112	0.198	-0.0095	-0.0142	0.0502	0.0139	0.0084	0.0183
CS(=O)(=O)CCNCc1ccc(-c2ccc3ncnc(Nc4ccc(OCc5cccc(F)c5)c(Cl)c4)c3c2)o1 [Lapatinib] + NC1(c2ccc(-c3nc4ccn5c(=O)[nH]nc5c4cc3-c3ccccc3)cc2)CCC1 [MK-2206] (first compound max 10 µM, 7x7, partner max 10 µM)	-0.0371	–	–	0.0876	-0.0348	0.0185	–	-0.0585	-0.0339	0.024	-0.0008	–	0.0096	0.0239	–	-0.0033	-0.0687	-0.0136	-0.0936	–
